What follows are compounds tested against T1, HIV-integrase (Human immunodeficiency virus type 1 group M subtype B, UniProt P12497) (assay: HIV-Integrase Inhibition Activity (SPA bead strand-transfer assay)). Details: Table 1; read-out: Activity (HIV-integrase inhibition, IC50 class).
T1 construct: Recombinant integrase (0.26 ng) was incubated with the beads
Format: biochemical
In short: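 Biotin-labelled substrate DNA (5 pmole) bound to streptavidin SPA beads, preloaded with recombinant integrase (0.26 ng) for 90 min at 37° C, then washed. Inhibitors and 0.1 fmol P33-labelled target DNA added; reaction stopped with 10 mM EDTA. Integration read as scintillation CPM.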

Compared with CC(C)Oc1ccc(CNC(=O)c2nc3n(c(=O)c2O)CCOC3(C)C)cc1 [Example 145, Pyrimido[2,1-c][1,4]oxazine-2-carboxamide, 4,6,7,9-tetrahydro-3-hydroxy-9,9-dimethyl-N-[[4-(1-methylethoxy)phenyl]methyl]-4-oxo-], CC1(C)OCCn2c1nc(C(=O)NCc1ccccc1)c(O)c2=O [Example 219, Pyrimido[2,1-c][1,4]oxazine-2-carboxamide, 4,6,7,9-tetrahydro-3-hydroxy-9,9-dimethyl-4-oxo-N-(phenylmethyl)-] is lower in IC50: greater than 1000 nM for the first, 2 to 100 nM for the second.

Cc1cc(Cl)ccc1CNC(=O)c1nc2n(c(=O)c1O)CCOC2(C)C [Example 272, Pyrimido[2,1-c][1,4]oxazine-2-carboxamide, N-[(4-chloro-2-methylphenyl)methyl]-4,6,7,9-tetrahydro-3-hydroxy-9,9-dimethyl-4-oxo-] and Cc1cc(CNC(=O)c2nc3n(c(=O)c2O)CCOC3(C)C)ccc1F [Example 20, Pyrimido[2,1-c][1,4]oxazine-2-carboxamide, N-[(4-fluoro-3-methylphenyl)methyl]-4,6,7,9-tetrahydro-3-hydroxy-9,9-dimethyl-4-oxo-] fall in the same range of IC50: 2 to 100 nM for the first, 2 to 100 nM for the second.

CC1(C)OCCn2c1nc(C(=O)NCc1ccc(F)cc1I)c(O)c2=O [Example 73, Pyrimido[2,1-c][1,4]oxazine-2-carboxamide, N-[(4-fluoro-2-iodophenyl)methyl]-4,6,7,9-tetrahydro-3-hydroxy-9,9-dimethyl-4-oxo-] and C[S+]([O-])c1cc(F)ccc1CNC(=O)c1nc2n(c(=O)c1O)CCOC2(C)C (stereo not shown) [Example 102, Pyrimido[2,1-c][1,4]oxazine-2-carboxamide, N-[[4-fluoro-2-(methylsulfinyl)phenyl]methyl]-4,6,7,9-tetrahydro-3-hydroxy-9,9-dimethyl-4-oxo] fall in the same range of IC50: 2 to 100 nM for the first, 2 to 100 nM for the second.

CC1(C)OCCn2c1nc(C(=O)NCc1ccc(-n3nccn3)cc1F)c(O)c2=O [Example 58, Pyrimido[2,1-c][1,4]oxazine-2-carboxamide, N-[[2-fluoro-4-(2H-1,2,3-triazol-2-yl)phenyl]methyl]-4,6,7,9-tetrahydro-3-hydroxy-9,9-dimethyl-4-oxo-] and CC1(C)OCCn2c1nc(C(=O)NCc1ccc(F)cc1C#CCO)c(O)c2=O [Example 89, Pyrimido[2,1-c][1,4]oxazine-2-carboxamide, N-[[4-fluoro-2-(3-hydroxy-1-propynyl)phenyl]methyl]-4,6,7,9-tetrahydro-3-hydroxy-9,9-dimethyl-4-oxo-] fall in the same range of IC50: 2 to 100 nM for the first, 2 to 100 nM for the second.

CCC1(CC)OCCn2c1nc(C(=O)NCc1ccc(F)cc1S(C)(=O)=O)c(O)c2=O [Example 203, Pyrimido[2,1-c][1,4]oxazine-2-carboxamide, 9,9-diethyl-N-[[4-fluoro-2-(methylsulfonyl)phenyl]methyl]-4,6,7,9-tetrahydro-3-hydroxy-4-oxo-] and CCC1(CC)OCCn2c1nc(C(=O)NCc1ccccc1N1CCCCS1(=O)=O)c(O)c2=O [Example 207, Pyrimido[2,1-c][1,4]oxazine-2-carboxamide, 4,6,7,9-tetrahydro-3-hydroxy-9,9-diethyl-4-oxo-N-[[2-(tetrahydro-1,1-dioxido-2H-1,2-thiazin-2-yl)phenyl]methyl]] fall in the same range of IC50: 2 to 100 nM for the first, 2 to 100 nM for the second.

COc1ccccc1CNC(=O)c1nc2n(c(=O)c1O)CCOC2(C)C [Example 242, Pyrimido[2,1-c][1,4]oxazine-2-carboxamide, 4,6,7,9-tetrahydro-3-hydroxy-N-[(2-methoxyphenyl)methyl]-9,9-dimethyl-4-oxo-] and Cc1cc(-c2ccccc2CNC(=O)c2nc3n(c(=O)c2O)CCOC3(C)C)cnc1F [Example 192, Pyrimido[2,1-c][1,4]oxazine-2-carboxamide, N-[[2-(6-fluoro-5-methyl-3-pyridinyl)phenyl]methyl]-4,6,7,9-tetrahydro-3-hydroxy-9,9-dimethyl-4-oxo-] fall in the same range of IC50: 2 to 100 nM for the first, 2 to 100 nM for the second.

CC1(C)OCCn2c1nc(C(=O)NCc1ccccc1-c1ccc(N3CCOCC3)nc1)c(O)c2=O [Example 156, Pyrimido[2,1-c][1,4]oxazine-2-carboxamide, 4,6,7,9-tetrahydro-3-hydroxy-9,9-dimethyl-N-[[2-[6-(4-morpholinyl)-3-pyridinyl]phenyl]methyl]-4-oxo-] and CC1(C)OCCn2c1nc(C(=O)NCc1ccccc1-c1cnn(Cc3ccccc3)c1)c(O)c2=O [Example 155, Pyrimido[2,1-c][1,4]oxazine-2-carboxamide, 4,6,7,9-tetrahydro-3-hydroxy-9,9-dimethyl-4-oxo-N-[[2-[1-(phenylmethyl)-1H-pyrazol-4-yl]phenyl]methyl]-] fall in the same range of IC50: 2 to 100 nM for the first, 2 to 100 nM for the second.

Cc1cc(CNC(=O)c2nc3n(c(=O)c2O)CCOC3C(C)C)ccc1F (stereo not shown) [Example 18, Pyrimido[2,1-c][1,4]oxazine-2-carboxamide, N-[(4-fluoro-3-methylphenyl)methyl]-4,6,7,9-tetrahydro-3-hydroxy-9-(1-methylethyl)-4-oxo-] and Cc1ccc(CNC(=O)c2nc3n(c(=O)c2O)CCOC3C)cc1C (stereo not shown) [Example 8, Pyrimido[2,1-c][1,4]oxazine-2-carboxamide, N-[(3,4-dimethylphenyl)methyl]-4,6,7,9-tetrahydro-3-hydroxy-9-methyl-4-oxo-] fall in the same range of IC50: 2 to 100 nM for the first, 2 to 100 nM for the second.

CC1(C)OCCn2c1nc(C(=O)NCc1ccc(F)cc1N1CCCCCC1=O)c(O)c2=O [Example 125, Pyrimido[2,1-c][1,4]oxazine-2-carboxamide, N-[[4-fluoro-2-(hexahydro-2-oxo-1H-azepin-1-yl)phenyl]methyl]-4,6,7,9-tetrahydro-3-hydroxy-9,9-dimethyl-4-oxo-] and CC1(C)OCCn2c1nc(C(=O)NCc1ccc(F)cc1N1C(=O)CC[C@H]1CO)c(O)c2=O [Example 130, Pyrimido[2,1-c][1,4]oxazine-2-carboxamide, N-[[4-fluoro-2-[(2S)-2-(hydroxymethyl)-5-oxo-1-pyrrolidinyl]phenyl]methyl]-4,6,7,9-tetrahydro-3-hydroxy-9,9-dimethyl-4-oxo-] fall in the same range of IC50: 2 to 100 nM for the first, 2 to 100 nM for the second.

CCC1OCCn2c1nc(C(=O)NCc1ccc(F)cc1)c(O)c2=O (stereo not shown) [Example 10, Pyrimido[2,1-c][1,4]oxazine-2-carboxamide, 9-ethyl-N-[(4-fluorophenyl)methyl]-4,6,7,9-tetrahydro-3-hydroxy-4-oxo-] and CC1(C)OCCn2c1nc(C(=O)NCc1cc(F)cc(F)c1)c(O)c2=O [Example 146, Pyrimido[2,1-c][1,4]oxazine-2-carboxamide, N-[(3,5-difluorophenyl)methyl]-4,6,7,9-tetrahydro-3-hydroxy-9,9-dimethyl-4-oxo-] fall in the same range of IC50: 2 to 100 nM for the first, 2 to 100 nM for the second.

With CC1(C)OCCn2c1nc(C(=O)NCc1ccc(F)cc1C#CCN1CCCCS1(=O)=O)c(O)c2=O [Example 93, Pyrimido[2,1-c][1,4]oxazine-2-carboxamide, N-[[4-fluoro-2-[3-(tetrahydro-1,1-dioxido-2H-1,2-thiazin-2-yl)-1-propynyl]phenyl]methyl]-4,6,7,9-tetrahydro-3-hydroxy-9,9-dimethyl-4-oxo-] the IC50 was 2 to 100 nM.

Same assay, conditions: Table 2a; read-out: HIV-Integrase Inhibition Activity

In the case of CC1(C)OCCn2c1nc(C(=O)NCc1ccc(F)cc1SCCO)c(O)c2=O [Example 313, Pyrimido[2,1-c][1,4]oxazine-2-carboxamide, N-[[4-fluoro-2-[(2-hydroxyethyl)thio]phenyl]methyl]-4,6,7,9-tetrahydro-3-hydroxy-9,9-dimethyl-4-oxo-], the IC50 is reported as 2 to 100 nM.

From patent publication US7491819B1 (priority 2004, dated 2009)
